Legend:
[1] = compound: Cc1c2c(nn1C)CSCc1cc(n(C)n1)CSc1cc(c3ccccc3c1)OCCCc1c(C(=O)O)n(C)c3c-2c(Cl)ccc13 [AZD5991]; conditions: max 1 µM
Outline: (§1)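 Cancer cell lines were plated in 1536-well plates in 7.5 μl of DMEM/F12 or RPMI with 10% FBS and kept 24 hours at 37°C and 5% CO2 before 72 hours of dosing, with final DMSO typically 0.2%. CellTiter-Glo 2.0 luminescence measured viability, scaled between blank-well and DMSO-well means. Dose responses were fitted to a two-parameter logistic curve with a non-linear mixed effects model. This fit gives the single-agent IC50.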

[2] = compound: CC(C)n1c(=O)n(C)c2cnc3cc(F)c(-c4ccc(OCCCN5CCCCC5)nc4)cc3c21 [AZD1390]; conditions: max 0.3 µM
Outline: as §1

[3] = compound: Nc1ccn([C@@H]2O[C@H](CO)[C@@H](O)C2(F)F)c(=O)n1 [Gemcitabine]; conditions: max 0.3 µM
Outline: as §1

[4] = compound: C1CN(CCC1(C(=O)N[C@@H](CCO)C2=CC=C(C=C2)Cl)N)C3=NC=NC4=C3C=CN4 [AZD5363]; conditions: max 10 µM
Outline: as §1

[5] = compound: CCc1c2c(nc3ccc(O)cc13)-c1cc3c(c(=O)n1C2)COC(=O)[C@]3(O)CC [SN-38]; conditions: max 0.3 µM
Outline: as §1

[6] = compound: C[C@@H](Nc1cc(F)cc(F)c1)c1cc(C(=O)N(C)C)cc2c(=O)cc(N3CCOCC3)oc12 [AZD8186]; conditions: max 10 µM
Outline: as §1

[7] = compound: O=c1[nH]cc(F)c(=O)[nH]1 [5-Fluorouracil]; conditions: max 20 µM
Outline: as §1

[8] = compound: COc1cc(Nc2ncc3c(n2)-c2ccc(Cl)cc2C(c2c(F)cccc2OC)=NC3)ccc1C(=O)O [Alisertib]; conditions: max 10 µM
Outline: as §1

[9] = compound: C=CCn1c(=O)c2cnc(Nc3ccc(N4CCN(C)CC4)cc3)nc2n1-c1cccc(C(C)(C)O)n1 [AZD1775]; conditions: max 3 µM
Outline: as §1

[10] = compound: O=C(c1cc(Cc2n[nH]c(=O)c3ccccc23)ccc1F)N1CCN(C(=O)C2CC2)CC1 [Olaparib]; conditions: max 10 µM
Outline: as §1

[11] = compound: NC1(c2ccc(-c3nc4ccn5c(=O)[nH]nc5c4cc3-c3ccccc3)cc2)CCC1 [MK-2206]; conditions: max 10 µM
Outline: as §1

[12] = compound: CC1=CN2[C@@H](C1)C=NC3=CC(=C(C=C3C2=O)OC)OCCCCCOC4=C(C=C5C(=C4)N=C[C@@H]6CC(=CN6C5=O)C)OC [SG3199]; conditions: max 0.001 µM
Outline: as §1

[13] = compound: O=C(Nc1ccc2[nH]nc(-c3ccncc3)c2c1)[C@@H]1CCN(CC(=O)N2CCN(c3ccc(-c4ncccn4)cc3)CC2)C1; conditions: max 5 µM
Outline: as §1

[14] = compound: CC(=O)c1c(C)c2cnc(Nc3ccc(N4CCNCC4)cn3)nc2n(C2CCCC2)c1=O [Palbociclib]; conditions: max 10 µM
Outline: as §1

[15] = compound: CN(C)CCCOc1ccc(-c2ccc3ncc4c(c3c2)n(C2CCOCC2)c(=O)n4C)cn1 [AZD0156]; conditions: max 3 µM
Outline: as §1

[16] = compound: COc1cc2ncnc(Nc3ccc(F)c(Cl)c3)c2cc1OCCCN1CCOCC1 [Gefitinib]; conditions: max 10 µM
Outline: as §1

[17] = compound: COc1cc([C@@H]2c3cc4c(cc3[C@@H](O[C@@H]3O[C@@H]5CO[C@@H](C)O[C@H]5[C@H](O)[C@H]3O)[C@H]3COC(=O)[C@H]23)OCO4)cc(OC)c1O [Etoposide]; conditions: max 10 µM
Outline: as §1

[18] = compound: CC(=O)O[C@H]1C(=O)[C@@]2(C)[C@H]([C@H](OC(=O)c3ccccc3)[C@]3(O)C[C@H](OC(=O)[C@H](O)[C@@H](NC(=O)c4ccccc4)c4ccccc4)C(C)=C1C3(C)C)[C@]1(OC(C)=O)CO[C@@H]1C[C@@H]2O [Paclitaxel]; conditions: max 3 µM
Outline: as §1

[19] = compound: CCN(CCO)CCCOc1ccc2c(Nc3cc(CC(=O)Nc4cccc(F)c4)[nH]n3)ncnc2c1 [AZD2811]; conditions: max 1 µM
Outline: as §1

[20] = compound: CC(=O)Nc1cccc(-n2c(=O)n(C3CC3)c(=O)c3c(Nc4ccc(I)cc4F)n(C)c(=O)c(C)c32)c1 [Trametinib]; conditions: max 1 µM
Outline: as §1

[21] = compound: C[C@@H](c1ccc2nccn2c1)n1nnc2ncc(-c3cnn(C)c3)nc21 [Savolitinib]; conditions: max 1 µM
Outline: as §1

[22] = compound: COc1nnc2ccc(N3CCC(c4ccc(OCCN5CCN(C)C(=O)[C@H]5C)cc4)CC3)nn12 [AZD5153]; conditions: max 1 µM
Outline: as §1

[23] = compound: COc1cccc2c1C(=O)c1c(O)c3c(c(O)c1C2=O)C[C@@](O)(C(=O)CO)C[C@@H]3O[C@H]1C[C@H](N)[C@H](O)[C@H](C)O1 [Doxorubicin]; conditions: max 1 µM
Outline: as §1

[24] = compound: CN(CC[C@H](CSC1=CC=CC=C1)NC2=C(C=C(C=C2)S(=O)(=O)NC(=O)C3=CC=C(C=C3)N4CCC(CC4)[C@H](C5=CC=CC=C5C6=CC=C(C=C6)Cl)O)S(=O)(=O)C(F)(F)F)CCO [AZD4320]; conditions: max 1 µM
Outline: as §1

[25] = compound: C1CC(C1)(C(=O)[O-])C(=O)[O-].N.N.[Pt+2] [Carboplatin]; conditions: max 10 µM
Outline: as §1

[26] = compound: C[C@@H]1COCCN1C2=NC(=NC(=C2)C3(CC3)[S@](=N)(=O)C)C4=C5C=CNC5=NC=C4 [AZD6738]; conditions: max 10 µM
Outline: as §1

[27] = compound: CS(=O)(=O)CCNCc1ccc(-c2ccc3ncnc(Nc4ccc(OCc5cccc(F)c5)c(Cl)c4)c3c2)o1 [Lapatinib]; conditions: max 10 µM
Outline: as §1

[28] = compound: C[C@@H](Oc1cc(-c2cnn(C3CCNCC3)c2)cnc1N)c1c(Cl)ccc(F)c1Cl [Crizotinib]; conditions: max 10 µM
Outline: as §1

[29] = compound: CC1(C)CCC(CN2CCN(c3ccc(C(=O)NS(=O)(=O)c4ccc(NCC5CCOCC5)c([N+](=O)[O-])c4)c(Oc4cnc5[nH]ccc5c4)c3)CC2)=C(c2ccc(Cl)cc2)C1 [Venetoclax]; conditions: max 1 µM
Outline: as §1

[30] = compound: Cc1nc(-c2cn3c(n2)-c2ccc(-c4cnn(C(C)(C)C(N)=O)c4)cc2OCC3)n(C(C)C)n1 [Taselisib]; conditions: max 10 µM
Outline: as §1

[31] = compound: N#Cc1cnc(Nc2cc(NC[C@H]3CNCCO3)c(C(F)(F)F)cn2)cn1 [SRA737]; conditions: max 10 µM
Outline: as §1

[32] = compound: COc1cccc(OCCCN)c1-c1cc(Nc2cnc(C#N)cn2)n[nH]1 [Prexasertib]; conditions: max 1 µM
Outline: as §1

[33] = compound: Cn1cnc2c(F)c(Nc3ccc(Br)cc3Cl)c(C(=O)NOCCO)cc21 [Selumetinib]; conditions: max 10 µM
Outline: as §1

[34] = compound: Cc1cc2ncnn2cc1Nc1ncc2c(n1)n(C1CCOCC1)c(=O)n2C [AZD7648]; conditions: max 10 µM
Outline: as §1

[35] = compound: CC1=C(C(=CC=C1)Cl)NC(=O)C2=CN=C(S2)NC3=CC(=NC(=N3)C)N4CCN(CC4)CCO [Dasatinib]; conditions: max 2 µM
Outline: as §1

Row | Cell Line | IC50, cell viability 72 h [1] | IC50, cell viability 72 h [2] | IC50, cell viability 72 h [3] | IC50, cell viability 72 h [4] | IC50, cell viability 72 h [5] | IC50, cell viability 72 h [6] | IC50, cell viability 72 h [7] | IC50, cell viability 72 h [8] | IC50, cell viability 72 h [9] | IC50, cell viability 72 h [10] | IC50, cell viability 72 h [11] | IC50, cell viability 72 h [12] | IC50, cell viability 72 h [13] | IC50, cell viability 72 h [14] | IC50, cell viability 72 h [15] | IC50, cell viability 72 h [16] | IC50, cell viability 72 h [17] | IC50, cell viability 72 h [18] | IC50, cell viability 72 h [19] | IC50, cell viability 72 h [20] | IC50, cell viability 72 h [21] | IC50, cell viability 72 h [22] | IC50, cell viability 72 h [23] | IC50, cell viability 72 h [24] | IC50, cell viability 72 h [25] | IC50, cell viability 72 h [26] | IC50, cell viability 72 h [27] | IC50, cell viability 72 h [28] | IC50, cell viability 72 h [29] | IC50, cell viability 72 h [30] | IC50, cell viability 72 h [31] | IC50, cell viability 72 h [32] | IC50, cell viability 72 h [33] | IC50, cell viability 72 h [34] | IC50, cell viability 72 h [35]
1 | HCC-78 (Lung Adenocarcinoma) | > 1000 nM | > 300 nM | 32.7 nM | > 10 µM | 7.04 nM | > 10 µM | > 20 µM | > 10 µM | 1380 nM | > 10 µM | > 10 µM | > 1 nM | > 5 µM | > 10 µM | > 3000 nM | > 10 µM | 2350 nM | > 3000 nM | > 1000 nM | > 1000 nM | > 1000 nM | > 1000 nM | 493 nM | > 1000 nM | > 10 µM | > 10000 nM | > 10 µM | 9.58 µM | > 1000 nM | 5.89 µM | > 10 µM | 99.6 nM | > 10 µM | > 10 µM | > 2000 nM
2 | RO82-W-1 (Thyroid Gland Carcinoma) | > 1000 nM | > 300 nM | > 300 nM | > 10 µM | > 300 nM | > 10 µM | > 20 µM | > 10 µM | > 3000 nM | > 10 µM | > 10 µM | > 1 nM | > 5 µM | > 10 µM | > 3000 nM | > 10 µM | > 10000 nM | > 3000 nM | > 1000 nM | > 1000 nM | > 1000 nM | > 1000 nM | > 1000 nM | > 1000 nM | > 10 µM | > 10000 nM | > 10 µM | > 10 µM | > 1000 nM | > 10 µM | > 10 µM | > 1000 nM | > 10 µM | > 10 µM | > 2000 nM
3 | Hs-578-T (Breast Carcinoma) | > 1000 nM | > 300 nM | > 300 nM | 2.37 µM | > 300 nM | 1.71 µM | > 20 µM | 3.97 µM | 394 nM | > 10 µM | 5.65 µM | > 1 nM | > 5 µM | > 10 µM | > 3000 nM | > 10 µM | > 10000 nM | < 3 nM | 435 nM | > 1000 nM | > 1000 nM | 156 nM | 300 nM | > 1000 nM | > 10 µM | 1810 nM | > 10 µM | > 10 µM | > 1000 nM | 2.19 µM | > 10 µM | 12.3 nM | > 10 µM | > 10 µM | 66.8 nM
4 | KELLY (Neuroblastoma) | 378 nM | > 300 nM | 3.87 nM | > 10 µM | 7.25 nM | > 10 µM | 12.6 µM | 0.237 µM | 64.5 nM | > 10 µM | > 10 µM | > 1 nM | > 5 µM | > 10 µM | > 3000 nM | > 10 µM | 2530 nM | 10.8 nM | 333 nM | > 1000 nM | > 1000 nM | > 1000 nM | 142 nM | > 1000 nM | > 10 µM | 1530 nM | 7.36 µM | 1.98 µM | 204 nM | > 10 µM | 0.199 µM | 1.18 nM | > 10 µM | > 10 µM | > 2000 nM
5 | HT-1376 (Bladder Carcinoma) | > 1000 nM | > 300 nM | > 300 nM | > 10 µM | > 300 nM | > 10 µM | > 20 µM | > 10 µM | > 3000 nM | > 10 µM | > 10 µM | > 1 nM | > 5 µM | > 10 µM | > 3000 nM | > 10 µM | > 10000 nM | > 3000 nM | > 1000 nM | > 1000 nM | > 1000 nM | > 1000 nM | > 1000 nM | > 1000 nM | > 10 µM | > 10000 nM | > 10 µM | > 10 µM | > 1000 nM | > 10 µM | > 10 µM | > 1000 nM | > 10 µM | > 10 µM | > 2000 nM

— the supplement of paper PMC11061612
